Records with an inconclusive call do not appear. Active and inactive are the calls of the source.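 The calls were made as follows: active = compound lowering the normal-ribosome reporter at least twice as much as the humanized-ribosome reporter, growth loss under a set limit; inconclusive = no clear call, values can overlap the other calls; inactive = the rest.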
Test system: E. coli WT-GFP vs G2058-humanized RFP, fluorescence, 24 h
Assay: E. coli strain growth, wild-type against G2058 humanized RFP mutant – G2058 mutant RFP vs wild-type GFP, cherry-pick, two tests, dose response (AID 1035470)
[1] = E. coli WT-GFP vs G2058-humanized RFP mixed culture, total growth OD600, 24 h
[2] = measured here: G2058 humanized mutant RFP growth

CCCC(=O)Nc1sc2c(c1C(=O)Nc1ccccn1)CCCC2
AC50: > 100 µM (inactive) | AC50 [1]: > 100 µM

O=C(COC(=O)C1CC2C=CC1C2)Nc1ccc([N+](=O)[O-])cc1 (stereo not given)
AC50 [1]: > 100 µM | AC50 [2]: > 100 µM

COC(=O)c1ccc(CCc2cc(O)c(Br)cc2O)cc1
AC50 [1]: > 100 µM

O=S1(=O)N[C@H](Cc2ccccc2)COc2cc(N3CCSCC3)ccc21
AC50 [1]: > 100 µM

Cc1cc(-c2ccc(C)c(S(=O)(=O)NCC3CCN(Cc4ccccc4F)CC3)c2)on1
AC50: > 100 µM (inactive) | AC50 [1]: > 100 µM

O=C(Nc1cccc(Cl)c1)N1C[C@@H]2[C@H](c3ccccc31)[C@H](CO)N2Cc1ccncc1
AC50: > 100 µM (inactive) | AC50 [1]: > 100 µM

CCC1CCCCN1C(=O)CSc1nnc(-c2cccc(Cl)c2)o1 (stereo not given)
AC50 [1]: > 100 µM

O=C(CSCc1c(Cl)cccc1Cl)NCc1ccccn1
AC50: > 100 µM (inactive)

Cn1c(-[n+]2c(-c3ccccc3)cc(-c3ccccc3)cc2-c2ccccc2)nc2c([N+](=O)[O-])cccc21
AC50: > 100 µM (inactive)

COc1ccc(OC)c(-c2nnc3n2N=C(c2ccc(OC)c(OC4CCOC4)c2)CS3)c1 (stereo not given)
AC50: > 100 µM (inactive)

COc1cc(OC)cc(C(=O)Nc2ccc(S(=O)(=O)Nc3cnc4ccccc4n3)cc2)c1
AC50: > 100 µM (inactive)

Cc1cc(C)nc(SCc2cn3c(C)cccc3n2)n1
AC50: > 100 µM (inactive) | AC50 [1]: > 100 µM

COc1ccc(Cn2c(=O)c3[nH]cnc3n(-c3ccc(C)cc3)c2=O)cc1
AC50: > 100 µM (inactive) | AC50 [1]: > 100 µM

O=C(O)c1ccccc1-c1ccccc1C(=O)Nc1ccc2c(c1)CCC2
AC50: > 100 µM (inactive)

COC(=O)c1ccc2nc(-c3ccco3)c(Cc3ccc(C)cc3)n2c1
AC50 [1]: > 100 µM

CCN(CC(=O)Nc1cccc(C#N)c1)CC(=O)Nc1cccc(OC)c1
AC50 [1]: > 100 µM

CS(=O)(=O)NCCSc1cc(C(F)(F)F)nc2ccccc12
AC50: > 100 µM (inactive)

COc1ccc(C#Cc2ccc([C@@H]3[C@@H](CO)N4CCCCN(C(=O)Nc5ccccc5F)C[C@H]34)cc2)cc1
AC50: > 100 µM (inactive)

COc1ccc(S(=O)(=O)N2CCOc3ccccc32)cc1
AC50 [1]: > 100 µM | AC50 [2]: > 100 µM

COC(=O)c1ccsc1NC(=O)c1cccc(OC)c1
AC50 [2]: 5.79 µM

O=C(OCC1COc2ccccc2O1)c1ccccc1F (stereo not given)
AC50 [2]: > 100 µM

O=S(=O)(NOCc1ccc(Cl)cc1)c1ccc(Cl)cc1
AC50 [1]: > 100 µM

O=C(COC(=O)C1CC1)Nc1nc(-c2ccc(F)c(F)c2)cs1
AC50 [1]: > 100 µM

COc1ccc(CNc2cc([N+](=O)[O-])ccc2OC)cc1
AC50: > 100 µM (inactive) | AC50 [1]: > 100 µM | AC50 [2]: > 100 µM

CCn1c(-c2ccccc2Cl)nn(CC(=O)Nc2ccccc2OC)c1=S
AC50: > 100 µM (inactive)

Cc1cccc(CSCC(=O)N2CCN(S(=O)(=O)c3ccccc3C#N)CC2)c1
AC50: > 100 µM (inactive)

CCCC#C/C(CCC)=C1\c2ccccc2C(=O)N1c1ccccc1
AC50: > 100 µM (inactive) | AC50 [1]: > 100 µM

CCOc1cccc(-c2cc(-c3n[nH]c(=S)n3CC)c3ccccc3n2)c1
AC50: > 100 µM (inactive)

Cc1cccc(C)c1-n1nnnc1C1(C)CCC(=O)N1Cc1cccs1 (stereo not given)
AC50: > 100 µM (inactive)

CCc1nnc(NS(=O)(=O)c2ccc(NC(=O)c3cccc(Cl)c3)cc2)s1
AC50: > 100 µM (inactive) | AC50 [1]: > 100 µM | AC50 [2]: > 100 µM

COc1ccc(NC(=O)Nc2cccc3c2O[C@H](CN(C)S(=O)(=O)c2ccc(Cl)cc2)[C@H](C)CN([C@H](C)CO)C3=O)cc1
AC50: > 100 µM (inactive)

Cc1cc(C(=O)NCCC2=CCCCC2)ccc1[N+](=O)[O-]
AC50: > 100 µM (inactive) | AC50 [1]: > 100 µM

O=C(CN1C(=O)c2ccccc2C1=O)Nc1cccc(S(=O)(=O)Nc2ccccc2Cl)c1
AC50: > 100 µM (inactive) | AC50 [1]: > 100 µM

O=C(c1ccccc1)C1Oc2ccccc2C2CC(c3cccs3)=NN12 (stereo not given)
AC50: > 100 µM (inactive)

COC(=O)c1ccc(CN2CCCC(CO)(Cc3ccccc3F)C2)cc1 (stereo not given)
AC50: > 100 µM (inactive) | AC50 [1]: > 100 µM

CC(C)NC(=O)N(C)C[C@H]1OCCCC[C@@H](C)Oc2ccc(NC(=O)c3ccccc3)cc2C(=O)N([C@@H](C)CO)C[C@H]1C
AC50: > 100 µM (inactive)

CCOc1ccc2nc(SCC(=O)Nc3nonc3C)[nH]c2c1
AC50: > 100 µM (inactive)

COc1ccc(OC)c(NC(=O)CN(C)CC(=O)Nc2ccccc2Br)c1
AC50 [1]: > 100 µM

CCC(=O)Nc1nc2ccc(NC(=O)c3cc(OC)c(OC)c(OC)c3)cc2s1
AC50: > 100 µM (inactive)

COc1cc(NC(=O)c2ccc(Cl)cc2)c(OC)cc1NC(=O)CN1CCCCC1
AC50 [1]: > 100 µM

Cc1ccc(NC(=O)c2ccc([N+](=O)[O-])s2)cc1S(=O)(=O)N1CCOCC1
AC50: > 100 µM (inactive) | AC50 [1]: > 100 µM

NS(=O)(=O)c1ccc(NC(=O)CCC(=O)O)cc1
AC50 [1]: > 100 µM

COC(=O)CC1COc2ccccc2N1C(=O)c1ccc(Br)cc1 (stereo not given)
AC50: > 100 µM (inactive) | AC50 [1]: > 100 µM

CCc1ccc(OCC(=O)NCc2ccco2)c(Br)c1
AC50: > 100 µM (inactive)

Cc1ccc(CC2C(=O)N(c3cc(Cl)ccn3)C(=O)C2C)cc1 (stereo not given)
AC50: > 100 µM (inactive)

Cc1nc(C)c(-c2ccn(S(=O)(=O)c3ccc(Cl)cc3)n2)o1
AC50: > 100 µM (inactive)

O=[N+]([O-])c1ccccc1Oc1ccc(Cl)c2cccnc12
AC50: > 100 µM (inactive)

Fc1cccc(CCN2C(=S)NC[C@@H]2CC2CCCCC2)c1
AC50: > 100 µM (inactive)

COc1ccc(CNC(=O)c2nc(S(=O)(=O)Cc3ccccc3)ncc2Cl)cc1
AC50: > 100 µM (inactive)

CCCCNC(=O)c1onc(CSc2cc(C)cc(C)c2)c1C(=O)O
AC50: > 100 µM (inactive) | AC50 [1]: 37.3 µM

CCN(CC)c1nc(Oc2ccc(C(=O)OC)cc2)nc(N2CCOCC2)n1
AC50: > 100 µM (inactive)

COc1ccc(Nc2oc(-c3ccco3)nc2S(=O)(=O)c2ccc(F)cc2)cc1
AC50: 8.11 µM | AC50 (E. coli WT-GFP vs G2058-humanized RFP mixed culture, OD600 growth, 24 h, test 1): 29 µM | AC50 (measured here: mutant RFP, test 1): 37.6 µM | AC50 (measured here: wild-type GFP, test 1): 4.64 µM

COC(=O)c1ccc(CSc2nc3ccccc3s2)o1
AC50 [1]: > 100 µM

COc1cc2cc(C(=O)Nc3ccc4c(c3)OCCO4)[nH]c2cc1OC
AC50: > 100 µM (inactive)

CC1CCCC(NC(=O)COC(=O)Cc2c[nH]c3ccccc23)C1C (stereo not given)
AC50: > 100 µM (inactive) | AC50 [1]: > 100 µM

CCOc1ccc2nc(NC(=O)CSc3nc(SC)ns3)sc2c1
AC50: > 100 µM (inactive) | AC50 [1]: > 100 µM

CCOc1ccc(C(C)=O)cc1CN1C(=O)NC2(CCCCCCC2)C1=O
AC50: > 100 µM (inactive) | AC50 [1]: > 100 µM

O=C(CN1CCN(S(=O)(=O)c2ccc(Cl)cc2)CC1)Nc1ccc2c(c1)CCC2
AC50: > 100 µM (inactive)

COc1ccc(OC)c(C(=O)COC(=O)c2ccc([N+](=O)[O-])o2)c1
AC50: > 100 µM (inactive) | AC50 [1]: > 100 µM

CCn1cc(Br)c(C(=O)Nc2ccc(C(=O)OC(C)C)cc2)n1
AC50: > 100 µM (inactive)

C[C@@H]1CN([C@@H](C)CO)C(=O)c2cc(NC(=O)Nc3cccc4ccccc34)ccc2O[C@@H](C)CCCCO[C@H]1CN(C)C(=O)CCCN(C)C
AC50: > 100 µM (inactive)

COc1cccc(NC(=O)CSc2nc3c(sc4ccccc43)c(=O)n2CCN(C)C)c1
AC50: > 100 µM (inactive)

CC(C)(C)c1ccc(-c2noc(CCC(=O)NCc3ccco3)n2)cc1
AC50: > 100 µM (inactive) | AC50 [1]: > 100 µM | AC50 [2]: > 100 µM
